Tests used:
rats = experiment: Definitive toxicity studies in rats (intravenous); format: in vivo; details: definitive toxicity study
Experimental: As clinical development of minnelide prodrug was initiated using an intravenous drug product, IND-enabling toxicology studies were conducted in both rats and dogs using the intravenous route of administration. The results of these studies supported first-in-human clinical trials involving intravenous administration of minnelide prodrug to patients with advanced solid tumors. To support the clinical development of a new solid oral dosage form of minnelide prodrug (capsules), exploratory and definitive toxicity studies were conducted with minnelide prodrug in solution via oral gavage in dogs. Taken together, the results of the intravenous and oral toxicity studies conducted with minnelide prodrug indicate that the target organ profile of minnelide prodrug is consistent in both species (rats and dogs) when administered by either route of administration (intravenous or oral).

gastric cancer = details: alone or in combination, when properly dosed
Text: Gastric cancer is the most prevalent cancer in South Korea […]. […] Herein, we have evaluated efficacy of minnelide prodrug in combination with paclitaxel in a subcutaneous mouse model of gastric cancer and in a human clinical trial.

[1] = tested on: patients with advanced gastric cancer (AGC); experiment: Phase 1 study of minnelide prodrug alone or with paclitaxel in advanced gastric cancer (NCT 05566834): safety, DLT, MTD, adverse events
[2] = cited from earlier work
ovarian carcinoma cells = experiment: Proliferation of ovarian carcinoma cells in vitro (activated with alkaline phosphatase); format: cell-based; details: concentration-dependent, 50-200 nM
MKN45, MKN28I-N-87 = experiment: Subcutaneous gastric cancer models, daily intraperitoneal minnelide prodrug; format: in vivo; details: 0.2 mg/kg and 0.4 mg/kg
[3] = Regimen A (PO daily x21 d/28 d), n = 11

CC(C)[C@]12O[C@H]1[C@@H]1O[C@]13[C@]1(O[C@H]1C[C@H]1C4=C(CC[C@@]13C)C(=O)OC4)[C@@H]2OCOP(=O)([O-])[O-].[Na+].[Na+] [minnelide prodrug, disodium; [(1S,2S,4S,5S,7S,8R,9R,11S, 13S)-1-methyl-17-oxo-7-propan-2-yl-3,6,10,16-tetraoxaheptacyclo [11.7.0.0^2,4.0^2,9.0^5,7.0^9,11.0^14,18]icos-14 (18)-en-8-yl]oxymethyl phosphate]
histopathology of reproductive tract tissues, males and females (rats): adverse, largely irreversible histopathological effects
toxic effects (gastric cancer): no significant toxic effects
Grade 5 AEs caused by gastric cancer progression, number ([1]; Regimen A): 3
minnelide prodrug-related AE abdominal pain ([1]; Regimen A): 27.3%
minnelide prodrug-related AE anorexia ([1]; Regimen A): 54.5%
minnelide prodrug-related AE nausea ([1]; Regimen A): 45.5%
Minnelide-related AE Abdominal pain, Any [1, 3]: 3 (27.3) n (%)
Minnelide-related AE Abdominal pain, ≥Gr 3 [1, 3]: 2 (18.2) n (%)
Minnelide-related AE Anorexia, Any [1, 3]: 6 (54.5)/— ^ n (%)
Minnelide-related AE Fatigue, Any [1, 3]: 2 (18.2)/— ^ n (%)
Minnelide-related AE Nausea, Any [1, 3]: 5 (45.5) n (%)
Minnelide-related AE Nausea, ≥Gr 3 [1, 3]: 2 (18.2) n (%)
Minnelide-related AE Neutropenia, Any [1, 3]: 1 (9.1)/1 (9.1) n (%)
Minnelide-related AE Neutropenia, ≥Gr 3 [1, 3]: 1 (9.1)/1 (9.1) n (%)
Minnelide-related AE Overall, Any [1, 3]: 8 (72.7) n (%)
Minnelide-related AE Vomiting, Any [1, 3]: 1 (9.1)/1 (9.1) n (%)
Minnelide-related AE Vomiting, ≥Gr 3 [1, 3]: 1 (9.1)/1 (9.1) n (%)
TRAE Abdominal pain, Any [1, 3]: 5 (45.5) n (%)
TRAE Abdominal pain, ≥Gr 3 [1, 3]: 2 (18.2) n (%)
TRAE Anemia, Any [1, 3]: 2 (18.2)/2 (18.2) n (%)
TRAE Anemia, ≥Gr 3 [1, 3]: 2 (18.2)/2 (18.2) n (%)
TRAE Annualar scaly plaques, Any [1, 3]: 1 (9.1)/— n (%)
TRAE Anorexia, Any [1, 3]: 8 (72.7)/— n (%)
TRAE Azotemia, Any [1, 3]: 1 (9.1)/— n (%)
TRAE Cancer pain, Any [1, 3]: 3 (27.3) n (%)
TRAE Cancer pain, ≥Gr 3 [1, 3]: 1 (9.1) n (%)
TRAE Cancer progression, Any [1, 3]: 3 (27.3)/3 (27.3) n (%)
TRAE Cancer progression, ≥Gr 3 [1, 3]: 3 (27.3)/3 (27.3) n (%)
TRAE Constipation, Any [1, 3]: 1 (9.1)/— n (%)
TRAE Decreased vision, Any [1, 3]: 1 (9.1)/— n (%)
TRAE Depression, Any [1, 3]: 1 (9.1)/— n (%)
TRAE Dyspepsia, Any [1, 3]: 1 (9.1)/— n (%)
TRAE Dysuria, Any [1, 3]: 1 (9.1)/— n (%)
TRAE Fatigue, Any [1, 3]: 3 (27.3)/— n (%)
TRAE Gastric stenosis, Any [1, 3]: 1 (9.1)/1 (9.1) n (%)
TRAE Gastric stenosis, ≥Gr 3 [1, 3]: 1 (9.1)/1 (9.1) n (%)
TRAE Hypophosphatemi, Any [1, 3]: 1 (9.1)/1 (9.1) n (%)
TRAE Hypophosphatemi, ≥Gr 3 [1, 3]: 1 (9.1)/1 (9.1) n (%)
TRAE Nausea, Any [1, 3]: 6 (54.5) n (%)
TRAE Nausea, ≥Gr 3 [1, 3]: 2 (18.2) n (%)
TRAE Neutropenia, Any [1, 3]: 1 (9.1)/1 (9.1) n (%)
TRAE Neutropenia, ≥Gr 3 [1, 3]: 1 (9.1)/1 (9.1) n (%)
TRAE Overall, Any [1, 3]: 11 (100.0) n (%)
TRAE Overall, ≥Gr 3 [1, 3]: 8 (72.7) n (%)
TRAE Tachycardia, Any [1, 3]: 1 (9.1)/— n (%)
TRAE Urinary tract infection, Any [1, 3]: 1 (9.1)/— n (%)
TRAE Vomiting, Any [1, 3]: 3 (27.3) n (%)
TRAE Vomiting, ≥Gr 3 [1, 3]: 1 (9.1) n (%)
dose-limiting toxicities (DLTs), number ([1]; Regimen A, dose level 3, 1.5 mg, Grade 3 abdominal pain): two and Two
Minnelide-related AE Abdominal pain, Any ([1]; Total Regimens A-C, n = 36): 14 (38.9) n (%)
Minnelide-related AE Abdominal pain, ≥Gr 3 ([1]; Total Regimens A-C, n = 36): 4 (11.1) n (%)
Minnelide-related AE Anorexia, Any ([1]; Total Regimens A-C, n = 36): 15 (41.7)/— n (%)
Minnelide-related AE Constipation, Any ([1]; Total Regimens A-C, n = 36): 1 (2.8)/— n (%)
Minnelide-related AE Fatigue, Any ([1]; Total Regimens A-C, n = 36): 4 (11.1)/— n (%)
Minnelide-related AE General weakness, Any ([1]; Total Regimens A-C, n = 36): 1 (2.8)/— n (%)
Minnelide-related AE Nausea, Any ([1]; Total Regimens A-C, n = 36): 10 (27.8) n (%)
Minnelide-related AE Nausea, ≥Gr 3 ([1]; Total Regimens A-C, n = 36): 2(5.6) n (%)
Minnelide-related AE Neutropenia, Any ([1]; Total Regimens A-C, n = 36): 11 (30.5) n (%)
Minnelide-related AE Neutropenia, ≥Gr 3 ([1]; Total Regimens A-C, n = 36): 7 (19.4) n (%)
Minnelide-related AE Overall, Any ([1]; Total Regimens A-C, n = 36): 27 (75.0) n (%)
Minnelide-related AE Overall, ≥Gr 3 ([1]; Total Regimens A-C, n = 36): 10 (27.8) n (%)
Minnelide-related AE Pruritus, Any ([1]; Total Regimens A-C, n = 36): 1 (2.8)/— n (%)
Minnelide-related AE Vomiting, Any ([1]; Total Regimens A-C, n = 36): 3 (8.3)/— n (%)
TRAE Abdominal pain, Any ([1]; Total Regimens A-C, n = 36): 16 (44.4) n (%)
TRAE Abdominal pain, ≥Gr 3 ([1]; Total Regimens A-C, n = 36): 4 (11.1) n (%)
TRAE Alopecia, Any ([1]; Total Regimens A-C, n = 36): 2 (5.6)/— n (%)
TRAE Anemia, Any ([1]; Total Regimens A-C, n = 36): 5 (13.9) n (%)
TRAE Anemia, ≥Gr 3 ([1]; Total Regimens A-C, n = 36): 3 (8.3) n (%)
TRAE Annualar scaly plaques, Any ([1]; Total Regimens A-C, n = 36): 1 (2.8)/— n (%)
TRAE Anorexia, Any ([1]; Total Regimens A-C, n = 36): 18 (50.0)/— n (%)
TRAE Azotemia, Any ([1]; Total Regimens A-C, n = 36): 2 (5.6)/— n (%)
TRAE Cancer pain, Any ([1]; Total Regimens A-C, n = 36): 3 (8.3) n (%)
TRAE Cancer pain, ≥Gr 3 ([1]; Total Regimens A-C, n = 36): 1 (2.8) n (%)
TRAE Cancer progression, Any ([1]; Total Regimens A-C, n = 36): 4 (11.1)/4 (11.1) n (%)
TRAE Cancer progression, ≥Gr 3 ([1]; Total Regimens A-C, n = 36): 4 (11.1)/4 (11.1) n (%)
TRAE Constipation, Any ([1]; Total Regimens A-C, n = 36): 3 (8.3)/— n (%)
TRAE Decreased vision, Any ([1]; Total Regimens A-C, n = 36): 1 (2.8)/— n (%)
TRAE Depression, Any ([1]; Total Regimens A-C, n = 36): 1 (2.8)/— n (%)
TRAE Dyspepsia, Any ([1]; Total Regimens A-C, n = 36): 2 (5.6)/— n (%)
TRAE Dysuria, Any ([1]; Total Regimens A-C, n = 36): 1 (2.8)/— n (%)
TRAE Edema, Any ([1]; Total Regimens A-C, n = 36): 1 (2.8)/— n (%)
TRAE Fatigue, Any ([1]; Total Regimens A-C, n = 36): 7 (19.4)/— n (%)
TRAE Gastric stenosis, Any ([1]; Total Regimens A-C, n = 36): 1 (2.8)/1 (2.8) n (%)
TRAE Gastric stenosis, ≥Gr 3 ([1]; Total Regimens A-C, n = 36): 1 (2.8)/1 (2.8) n (%)
TRAE General weakness, Any ([1]; Total Regimens A-C, n = 36): 2 (5.6)/— n (%)
TRAE Headache, Any ([1]; Total Regimens A-C, n = 36): 1 (2.8)/— n (%)
TRAE Hypercalcemia, Any ([1]; Total Regimens A-C, n = 36): 1 (2.8)/1 (2.8) n (%)
TRAE Hypercalcemia, ≥Gr 3 ([1]; Total Regimens A-C, n = 36): 1 (2.8)/1 (2.8) n (%)
TRAE Hypophosphatemi, Any ([1]; Total Regimens A-C, n = 36): 1 (2.8)/1 (2.8) n (%)
TRAE Hypophosphatemi, ≥Gr 3 ([1]; Total Regimens A-C, n = 36): 1 (2.8)/1 (2.8) n (%)
TRAE Jaundice, Any ([1]; Total Regimens A-C, n = 36): 1 (2.8)/1 (2.8) n (%)
TRAE Jaundice, ≥Gr 3 ([1]; Total Regimens A-C, n = 36): 1 (2.8)/1 (2.8) n (%)
TRAE Mucositis, Any ([1]; Total Regimens A-C, n = 36): 1 (2.8)/— n (%)
TRAE Nausea, Any ([1]; Total Regimens A-C, n = 36): 12 (33.3) n (%)
TRAE Nausea, ≥Gr 3 ([1]; Total Regimens A-C, n = 36): 2(5.6) n (%)
TRAE Neutropenia, Any ([1]; Total Regimens A-C, n = 36): 11 (30.6) n (%)
TRAE Neutropenia, ≥Gr 3 ([1]; Total Regimens A-C, n = 36): 7 (19.4) n (%)
TRAE Overall, Any ([1]; Total Regimens A-C, n = 36): 34 (94.4) n (%)
TRAE Overall, ≥Gr 3 ([1]; Total Regimens A-C, n = 36): 16 (44.4) n (%)
TRAE Pruritus, Any ([1]; Total Regimens A-C, n = 36): 1 (2.8)/— n (%)
TRAE Rash, Any ([1]; Total Regimens A-C, n = 36): 1 (2.8)/— n (%)
TRAE Sore throat, Any ([1]; Total Regimens A-C, n = 36): 1 (2.8)/— n (%)
TRAE Tachycardia, Any ([1]; Total Regimens A-C, n = 36): 2 (5.6)/— n (%)
TRAE Tuberculosis, Any ([1]; Total Regimens A-C, n = 36): 1 (2.8)/— n (%)
TRAE Urinary tract infection, Any ([1]; Total Regimens A-C, n = 36): 2 (5.6)/— n (%)
TRAE Vomiting, Any ([1]; Total Regimens A-C, n = 36): 5 (13.9) n (%)
TRAE Vomiting, ≥Gr 3 ([1]; Total Regimens A-C, n = 36): 1 (2.8) n (%)
TRAE Weight loss, Any ([1]; Total Regimens A-C, n = 36): 1 (2.8)/— n (%)
TRAE neutropenia ([1]; all regimens, 11/36): 30.6%
TRAE nausea ([1]; all regimens, 12/36): 33.3%
TRAE abdominal pain ([1]; all regimens, 16/36): 44.4%
TRAEs above Grade 3, share of patients ([1]; all regimens, 16 patients of 36): 44.4%
TRAE anorexia ([1]; all regimens, 18/36): 50%
Grade 5 AEs caused by gastric cancer progression, number ([1]; all regimens, 36 patients): four and Four
Grade 3 or higher AE with minnelide prodrug: abdominal pain ([1]; all regimens, n = 36): 11.1%
Grade 3 or higher AE with minnelide prodrug: nausea ([1]; all regimens, n = 36): 5.6%
Grade 3 or higher AE with minnelide prodrug: neutropenia ([1]; all regimens, n = 36): 19.4%
Grade 3 or higher AEs with minnelide prodrug, overall ([1]; all regimens, n = 36): 27.8%
TRAE above Grade 3: abdominal pain ([1]; all regimens, n = 36): 11.1%
TRAE above Grade 3: neutropenia ([1]; all regimens, n = 36): 19.4%
drop in blood counts: resolution after withholding the drug ([1]; in vivo): 4 to 8 days
Grade ≥3 abdominal pain ([1]; monotherapy group): 18.2%
Grade ≥3 nausea ([1]; monotherapy group): 18.2%
Grade ≥3 neutropenia ([1]; monotherapy group): 9.1%
Grade ≥3 vomiting ([1]; monotherapy group): 9.1%
maximum tolerated dose (MTD) ([1]; monotherapy, PO once daily for 21 days every 4 weeks): 1.25 mg
drop in blood counts: onset after start of drug ([1]; usually seen): 5 to 7 days
aqueous solubility [2]: greater aqueous solubility
proliferation (ovarian carcinoma cells): reduced the proliferation
tumor weights and volumes (MKN45, MKN28I-N-87): markedly decreased tumor weights and volumes

— patent US12357645B2, “Drug combination for treatment of gastric cancer” (priority 2023, dated 2025)
